Consider 4 compounds from PMC6820730, “Leu^8 and Pro^8 oxytocin agonism differs across human, macaque, and marmoset vasopressin 1a receptors” (Scientific Reports, 2019).

For experiment [1], the target named is T1, human AVPR1a (Homo sapiens, UniProt P37288). Nature of the experiment: Intact cell saturation binding of 125I-OVTA, human AVPR1a CHO clone. On the procedure:
(§1) Intact cell saturation binding assays […] Cells were washed four times with 100 μL ice-cold HGH-BSA, solubilized with 100 μL 0.2 N NaOH, and radioactivity quantified with a gamma counter. We also counted aliquots of the used binding medium (i.e., free ^125I-OVTA) to quantify free radioligand CPM directly, eliminating any concerns about differential depletion of ligand due to differential receptor expression levels across species or time. […] Binding affinity for ^125I-OVTA was determined after correcting for non-specific binding by plotting specific bound/free vs. bound using a single-site binding equation (Graphpad Software Inc., La Jolla, CA). […] Binding affinities for ^125I-OVTA at each primate AVPR1a were calculated by subtracting nonspecific binding and then plotting bound ^125I-OVTA vs. free ^125I-OVTA. Because concentrations of ^125I-OVTA were not identical from experiment to experiment, technical replicates within each experiment (n = 3) were normalized and then corrected using the Cheng-Prusoff equation. […] We averaged across technical replicates (n = 3) within each biological replicate and then averaged across the biological replicates (n = 3), normalized the data, and tested for significant differences of best-fit LogEC50 using one-way ANOVA analyses.

For experiment [2], the system named is macaque AVPR1a. Nature of the experiment: Intact cell saturation binding of 125I-OVTA, macaque AVPR1a CHO clone. Particulars: intact CHO cells, 3 h on ice. On the procedure: as §1
The subject of experiment [3] is marmoset AVPR1a. Nature of the experiment: Intact cell saturation binding of 125I-OVTA, marmoset AVPR1a CHO clone. Particulars: intact CHO cells, 3 h on ice. The protocol: as §1
Experiment [4] deals with human, marmoset, and macaque AVPR1a. Nature of the experiment: Saturation binding of 125I-OVTA, summary over the three primate AVPR1a. Particulars: range over the three species. On the procedure:
Intact cell saturation binding assays […] Cells were washed four times with 100 µL ice-cold HGH-BSA, solubilized with 100 µL 0.2 N NaOH, and radioactivity quantified with a gamma counter. We also counted aliquots of the used binding medium (i.e., free ^125I-OVTA) to quantify free radioligand CPM directly, eliminating any concerns about differential depletion of ligand due to differential receptor expression levels across species or time. […] Binding affinity for ^125I-OVTA was determined after correcting for non-specific binding by plotting specific bound/free vs. bound using a single-site binding equation (Graphpad Software Inc., La Jolla, CA).

The target in experiment [5] is human, macaque, and marmoset OXTR. More on the design: method as in Taylor et al., 2018. The settings on record: range over the three species; ref Taylor et al., 2018; read-out: Affinity (Kd) of 125I-OVTA at human, macaque, and marmoset OXTR; cited from earlier work.
In experiment [6] the target is T1, human AVPR1a. Nature of the experiment: Ca2+ mobilization assay, CHO cells expressing human AVPR1a. It counts as cell-based. The settings on record: human AVPR1a in CHO cells; ± Std. Error, n = 6; read-out: Ca^2+ EC50. On the technique in general: Calcium flux is commonly read through the fluorescence of an indicator in the cells.
Experiment [7] relates to macaque AVPR1a. Nature of the experiment: Intact cell 125I-OVTA competition binding, CHO cells expressing macaque AVPR1a. Particulars: competition with 125I-OVTA in intact CHO cells, 3 h on ice, ± Std. Error, n = 3. On the procedure:
(§2) Intact cell competition binding assays
(§3) Cells were washed four times with 100 µL ice-cold HGH-BSA, solubilized with 100 µL 0.2 N NaOH, and radioactivity was quantified with a gamma counter. Half-maximal inhibitory concentrations (IC50) were determined by plotting bound ^125I-OVTA vs. competitor concentration. IC50 values were then corrected using the Cheng-Prusoff equation with each receptor’s KD for ^125I-OVTA to produce Ki values for the competing ligands.
(§4) Binding affinities for ^125I-OVTA at each primate AVPR1a were calculated by subtracting nonspecific binding and then plotting bound ^125I-OVTA vs. free ^125I-OVTA. Because concentrations of ^125I-OVTA were not identical from experiment to experiment, technical replicates within each experiment (n = 3) were normalized and then corrected using the Cheng-Prusoff equation. […] Differences in Ca^2+ mobilization potency (EC50) and maximal response to OXT were determined by normalizing OXT-induced (Log M) Ca^2+ responses as a percentage of maximal (100%) AVP-induced Ca^2+ response. […] All best-fit data (Ki, EC50, and Ca^2+ maximal responses) were analyzed using the nonlinear least squares curve-fitting capabilities of GraphPad Prism.

The subject of experiment [8] is marmoset AVPR1a. Nature of the experiment: Intact cell 125I-OVTA competition binding, CHO cells expressing marmoset AVPR1a. The settings on record: competition with 125I-OVTA in intact CHO cells, 3 h on ice, ± Std. Error, n = 5. On the procedure: as §2, §3, §4
In experiment [9] the test system is macaque AVPR1a. Nature of the experiment: Ca2+ mobilization assay, CHO cells expressing macaque AVPR1a. The experiment is classed as cell-based. The protocol: (§5) Ca^2+ mobilization assays
as §4, with “. […] . Binding” for “Binding”, “response. We averaged across technical replicates (n = 3) within each biological replicate and then averaged across the biological replicates (n = 3), normalized the data, and tested for significant differences of best-fit LogEC50 using one-way ANOVA analyses.” for “response.”, “.” for “All best-fit data (Ki, EC50, and Ca^2+ maximal responses) were analyzed using the nonlinear least squares curve-fitting capabilities of GraphPad Prism.”

The test system of experiment [10] is marmoset AVPR1a. Nature of the experiment: Ca2+ mobilization assay, CHO cells expressing marmoset AVPR1a. It counts as cell-based. On the procedure: as §5
as §4, with “. […] . Binding” for “Binding”, “response. We averaged across technical replicates (n = 3) within each biological replicate and then averaged across the biological replicates (n = 3), normalized the data, and tested for significant differences of best-fit LogEC50 using one-way ANOVA analyses.” for “response.”, “.” for “All best-fit data (Ki, EC50, and Ca^2+ maximal responses) were analyzed using the nonlinear least squares curve-fitting capabilities of GraphPad Prism.”

Experiment [11] concerns untransfected CHO cells. Nature of the experiment: Ca2+ response in untransfected CHO cells. It counts as cell-based, Chinese hamster.

Several values for one entry are separate records, joined by “and”; a condition that tells them apart may be missing. Equal entries are not always repeated. Starred links: 1 amine or outer side, 2 acyl side, 3 side chain; linkers in the order of their positions; H or OH if unused. Positions of bridges follow the written chain, without caps; N, C: chain ends. Non-standard residues stand in square brackets, D forms with d. Residues, ends and D or L forms follow the SMILES beside them. Tyr(3-I) = N[C@@H](Cc1ccc(O)c(I)c1)C(=O)O; X1 = O=C(CC1(S[*:2])CCCCC1)[*:1]; Orn = NCCC[C@H](N)C(=O)O

T1 sequence (P37288 whole entry): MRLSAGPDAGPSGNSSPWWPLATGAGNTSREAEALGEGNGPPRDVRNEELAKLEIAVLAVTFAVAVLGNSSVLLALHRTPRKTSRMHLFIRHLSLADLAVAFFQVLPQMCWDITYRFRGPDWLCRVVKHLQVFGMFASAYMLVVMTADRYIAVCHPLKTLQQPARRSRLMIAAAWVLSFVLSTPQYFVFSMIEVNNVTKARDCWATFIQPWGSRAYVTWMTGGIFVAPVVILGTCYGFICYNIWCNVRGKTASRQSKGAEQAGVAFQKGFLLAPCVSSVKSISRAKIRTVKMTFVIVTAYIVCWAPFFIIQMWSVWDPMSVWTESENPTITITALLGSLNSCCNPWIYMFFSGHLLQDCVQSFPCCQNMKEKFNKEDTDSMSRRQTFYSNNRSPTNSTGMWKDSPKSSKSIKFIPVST

`CC[C@H](C)[C@@H]1NC(=O)[C@H](Cc2ccc(OC)cc2)NC(=O)CC2(CCCCC2)SSC[C@@H](C(=O)N2CCC[C@H]2C(=O)N[C@@H](CCCN)C(=O)N[C@@H](Cc2ccc(O)c(I)c2)C(N)=O)NC(=O)[C@H](CC(N)=O)NC(=O)[C@H]([C@@H](C)O)NC1=O` [^125I-OVTA, ^125I-ornithine vasotocin analog] (Y(Me)ITNCP[Orn][Tyr(3-I)]-NH2; linker N-5 via X1; C-terminus assumed) gave a Bmax in [1] (human AVPR1a CHO clone, maximal binding of 125I-OVTA) of 6.21 fmol/well. Besides, the Kd in experiment [1] (human AVPR1a, saturation binding, intact CHO cells, 3 h on ice) was 1.17 nM; in experiment [2], 0.331 nM; in [3] it was 0.944 nM; in [4] it was 0.331 to 1.17 nM; in experiment [5] it was 0.161 to 0.481 nM.
`CC[C@H](C)[C@@H]1NC(=O)[C@H](Cc2ccc(O)cc2)NC(=O)[C@@H](N)CSSC[C@@H](C(=O)N2CCC[C@H]2C(=O)N2CCC[C@H]2C(=O)NCC(N)=O)NC(=O)[C@H](CC(N)=O)NC(=O)[C@H](CCC(N)=O)NC1=O` [Pro^8-OXT] (H-CYIQNCPPG-NH2; disulfide 1-6): in experiment [6], the EC50 worked out at 36.2 ± 0.25 nM.
Regarding `N=C(N)NCCC[C@H](NC(=O)[C@@H]1CCCN1C(=O)[C@@H]1CSSC[C@H](N)C(=O)N[C@@H](Cc2ccc(O)cc2)C(=O)N[C@@H](Cc2ccccc2)C(=O)N[C@@H](CCC(N)=O)C(=O)N[C@@H](CC(N)=O)C(=O)N1)C(=O)NCC(N)=O` [AVP, arginine vasopressin], the Ki in experiment [7] was 1.2 nM and 1.21 nM; in [8] it was 0.9 nM and 0.86 nM. In addition, the EC50 in experiment [9] (macaque AVPR1a in CHO cells, ± Std. Error, n = 3, read-out: Ca^2+ EC50) was 0.3 nM and 0.31 nM; in experiment [10] (marmoset AVPR1a in CHO cells, ± Std. Error, n = 3, read-out: Ca^2+ EC50), 0.05 ± 0.05 nM. Further, the “Maximal Ca^2+ response, comparison among ligands” value in [9] (macaque AVPR1a, F(2,6) = 0.23, p = 0.80) is recorded as “equal maximal Ca^2+ responses”. The “Ca^2+ response of AVP alone, % of the maximal Ca^2+ response” value in experiment [10] (10 nM AVP alone, marmoset AVPR1a) is given as “approximately 80%”. The “Ca^2+ response” value in experiment [11] (AVP 100 mM to 0.1 nM (so in the source)) was “no Ca^2+ response”.
As for “Lysophosphatidic acid [Lysophosphatidic acid (LPA)]”, in [11] (10 mM (so in the source)), the “Ca^2+ response” value is listed as “do show a Ca^2+ response”.

Broadly, the Kd is a measure of binding affinity in units of concentration. In general, EC50 refers to the concentration needed to bring the measured effect to its halfway point. The Ki is a dissociation constant, usually derived from enzyme kinetics or from competition with a known ligand. A lower Ki goes with a stronger hold on the target.
